Laboratory results reported in ChEMBL document CHEMBL5465560, “Selectivity Literature for EUbOPEN Chemogenomic Library” (2024).
One block for each molecule: values may come before it.

What was measured:
Aurora kinase B = Aurora kinase B (Homo sapiens, UniProt Q96GD4); experiment: Selectivity interaction (Enzymatic assay) EUB0001550a AURKB
[1] = target: T1, Mitogen-activated protein kinase kinase kinase 7 (Homo sapiens) (UniProt O43318); experiment: Selectivity interaction (Kinase panel (literature)) EUB0001199aCl MAP3K7; details: at 1 µM
T1 sequence (whole entry): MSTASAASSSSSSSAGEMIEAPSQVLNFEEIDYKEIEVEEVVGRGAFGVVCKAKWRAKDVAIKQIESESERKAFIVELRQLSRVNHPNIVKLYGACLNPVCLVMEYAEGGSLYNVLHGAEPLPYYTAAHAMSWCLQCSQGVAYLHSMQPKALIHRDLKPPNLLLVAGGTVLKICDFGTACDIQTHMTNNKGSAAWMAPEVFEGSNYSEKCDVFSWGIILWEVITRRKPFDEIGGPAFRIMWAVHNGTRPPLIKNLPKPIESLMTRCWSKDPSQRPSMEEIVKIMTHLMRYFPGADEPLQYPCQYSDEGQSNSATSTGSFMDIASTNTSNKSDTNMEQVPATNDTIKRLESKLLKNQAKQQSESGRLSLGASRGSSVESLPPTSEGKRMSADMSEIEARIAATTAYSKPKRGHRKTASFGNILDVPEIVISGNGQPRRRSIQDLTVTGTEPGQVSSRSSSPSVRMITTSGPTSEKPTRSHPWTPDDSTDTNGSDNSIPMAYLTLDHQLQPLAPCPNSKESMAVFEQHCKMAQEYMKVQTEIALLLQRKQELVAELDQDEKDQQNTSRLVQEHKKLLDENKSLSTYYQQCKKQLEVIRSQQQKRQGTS

[2] = target: T2, Tyrosine-protein kinase JAK3 (Homo sapiens) (UniProt P52333); experiment: Selectivity interaction (Kinase panel (Z-LYTE Assay)) EUB0001632a JAK3; details: at 10 µM
T2 sequence (whole entry): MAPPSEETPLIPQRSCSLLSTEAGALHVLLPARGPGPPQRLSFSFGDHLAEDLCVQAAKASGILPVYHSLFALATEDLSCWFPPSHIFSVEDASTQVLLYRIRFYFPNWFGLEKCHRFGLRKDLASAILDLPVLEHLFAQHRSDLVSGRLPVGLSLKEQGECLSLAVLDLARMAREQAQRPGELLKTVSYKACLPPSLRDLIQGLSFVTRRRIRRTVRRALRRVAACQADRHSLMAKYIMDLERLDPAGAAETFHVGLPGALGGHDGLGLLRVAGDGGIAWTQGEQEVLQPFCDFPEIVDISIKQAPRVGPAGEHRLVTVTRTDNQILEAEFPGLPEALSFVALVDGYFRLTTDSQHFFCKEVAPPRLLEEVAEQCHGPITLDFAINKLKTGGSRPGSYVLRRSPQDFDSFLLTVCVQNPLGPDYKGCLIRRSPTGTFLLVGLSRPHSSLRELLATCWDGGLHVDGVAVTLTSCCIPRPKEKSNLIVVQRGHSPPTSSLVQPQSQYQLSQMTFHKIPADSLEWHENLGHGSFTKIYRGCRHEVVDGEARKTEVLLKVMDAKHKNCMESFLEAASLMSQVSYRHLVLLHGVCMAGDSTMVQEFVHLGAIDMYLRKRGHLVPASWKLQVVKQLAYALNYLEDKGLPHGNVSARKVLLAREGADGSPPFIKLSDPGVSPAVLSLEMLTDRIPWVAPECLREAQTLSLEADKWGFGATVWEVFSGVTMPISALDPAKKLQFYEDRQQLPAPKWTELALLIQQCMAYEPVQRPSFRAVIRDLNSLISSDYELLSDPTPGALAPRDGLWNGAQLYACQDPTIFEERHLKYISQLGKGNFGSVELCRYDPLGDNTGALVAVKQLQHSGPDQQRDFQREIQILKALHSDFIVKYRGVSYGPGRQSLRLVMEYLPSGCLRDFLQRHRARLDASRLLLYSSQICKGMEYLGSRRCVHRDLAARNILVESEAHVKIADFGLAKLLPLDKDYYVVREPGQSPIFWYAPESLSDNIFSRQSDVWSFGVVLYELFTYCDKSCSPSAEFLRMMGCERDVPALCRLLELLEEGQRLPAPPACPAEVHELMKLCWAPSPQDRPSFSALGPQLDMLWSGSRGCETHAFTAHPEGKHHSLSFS

[3] = target: T3, Receptor-type tyrosine-protein kinase FLT3 (Homo sapiens, UniProt P36888); experiment: Selectivity interaction (Kinase panel (Eurofins, enzymatic assay)) EUB0000311b FLT3
T3 sequence (P36888 whole entry): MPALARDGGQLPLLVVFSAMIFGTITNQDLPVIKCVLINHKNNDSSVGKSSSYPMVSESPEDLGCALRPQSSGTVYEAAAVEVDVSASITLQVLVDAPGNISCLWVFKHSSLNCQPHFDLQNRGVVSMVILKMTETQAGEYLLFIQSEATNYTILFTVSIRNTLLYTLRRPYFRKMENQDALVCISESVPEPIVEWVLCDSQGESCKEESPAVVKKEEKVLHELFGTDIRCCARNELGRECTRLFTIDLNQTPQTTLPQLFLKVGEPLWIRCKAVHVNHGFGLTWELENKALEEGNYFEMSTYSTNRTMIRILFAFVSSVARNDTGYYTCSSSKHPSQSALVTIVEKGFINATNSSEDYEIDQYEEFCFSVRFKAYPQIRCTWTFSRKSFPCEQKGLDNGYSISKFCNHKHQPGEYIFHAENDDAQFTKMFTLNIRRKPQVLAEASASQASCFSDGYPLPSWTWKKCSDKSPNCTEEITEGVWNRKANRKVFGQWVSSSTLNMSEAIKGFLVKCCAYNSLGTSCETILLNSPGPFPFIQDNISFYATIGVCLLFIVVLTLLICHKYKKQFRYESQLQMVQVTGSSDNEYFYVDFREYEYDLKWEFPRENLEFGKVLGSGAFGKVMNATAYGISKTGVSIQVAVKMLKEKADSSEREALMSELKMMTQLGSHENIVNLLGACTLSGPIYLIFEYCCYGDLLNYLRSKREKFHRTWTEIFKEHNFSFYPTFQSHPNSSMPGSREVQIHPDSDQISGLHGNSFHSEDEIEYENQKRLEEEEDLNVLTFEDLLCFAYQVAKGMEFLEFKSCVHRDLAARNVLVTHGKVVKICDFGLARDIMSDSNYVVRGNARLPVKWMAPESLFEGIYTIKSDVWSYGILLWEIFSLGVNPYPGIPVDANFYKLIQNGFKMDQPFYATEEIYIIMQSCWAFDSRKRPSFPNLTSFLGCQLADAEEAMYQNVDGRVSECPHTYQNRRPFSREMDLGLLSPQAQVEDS

[4] = target: Serine/threonine-protein kinase tousled-like 2 (Homo sapiens) (UniProt Q86UE8); experiment: Selectivity interaction (KinomeScan (DiscoverX)) EUB0000666a TLK2; details: at 10 µM
Serine/threonine-protein kinase tousled-like 2 (Homo sapiens), sequence (Q86UE8 whole entry, looked up): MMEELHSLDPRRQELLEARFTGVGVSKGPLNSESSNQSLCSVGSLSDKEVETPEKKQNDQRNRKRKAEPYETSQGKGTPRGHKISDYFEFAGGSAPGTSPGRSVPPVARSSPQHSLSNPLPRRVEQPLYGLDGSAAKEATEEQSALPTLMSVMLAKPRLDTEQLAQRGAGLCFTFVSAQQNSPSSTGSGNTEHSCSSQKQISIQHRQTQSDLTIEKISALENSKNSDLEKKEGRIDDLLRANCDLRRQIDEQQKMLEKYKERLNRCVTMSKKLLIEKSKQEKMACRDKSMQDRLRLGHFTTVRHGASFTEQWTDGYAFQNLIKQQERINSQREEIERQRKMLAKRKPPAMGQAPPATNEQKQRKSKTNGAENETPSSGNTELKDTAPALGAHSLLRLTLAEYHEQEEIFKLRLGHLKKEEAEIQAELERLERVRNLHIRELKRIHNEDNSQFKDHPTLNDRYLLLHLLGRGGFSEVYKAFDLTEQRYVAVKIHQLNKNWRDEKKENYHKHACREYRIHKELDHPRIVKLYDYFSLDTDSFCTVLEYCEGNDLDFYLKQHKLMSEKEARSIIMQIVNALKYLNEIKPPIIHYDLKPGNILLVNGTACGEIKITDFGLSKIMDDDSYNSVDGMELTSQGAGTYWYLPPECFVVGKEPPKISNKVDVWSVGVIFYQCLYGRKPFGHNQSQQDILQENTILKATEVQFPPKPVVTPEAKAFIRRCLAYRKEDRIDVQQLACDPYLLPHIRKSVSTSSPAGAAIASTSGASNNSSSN

Aurora kinase B, sequence (Q96GD4 whole entry): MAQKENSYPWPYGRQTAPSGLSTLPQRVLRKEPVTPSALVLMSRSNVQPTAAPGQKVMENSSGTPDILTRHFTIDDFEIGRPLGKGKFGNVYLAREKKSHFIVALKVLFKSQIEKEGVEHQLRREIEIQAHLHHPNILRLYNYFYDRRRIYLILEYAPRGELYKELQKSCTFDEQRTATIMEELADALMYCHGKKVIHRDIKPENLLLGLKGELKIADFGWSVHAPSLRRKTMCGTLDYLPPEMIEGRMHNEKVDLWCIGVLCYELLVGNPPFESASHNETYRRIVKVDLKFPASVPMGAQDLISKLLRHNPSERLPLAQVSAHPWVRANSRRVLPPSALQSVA

IC50 (Aurora kinase B): 1400 nM
SMILES: CN(C)CC#Cc1ccc2[nH]c3c(c2c1)-c1nc(N)ncc1CCC3

% of control [2]: 16.9%
SMILES: Cn1cc(-n2cnc3c(NCc4nc5cc(Cl)c(Cl)cc5[nH]4)nc(N4CCOCC4)nc32)cn1

Further lines, the molecule ahead of its results:

SMILES: CN1Cc2nccc(-c3cn(C)nc3-c3ccc(F)cc3)c2C1=O
% of inhibition [1]: 3%

SMILES: CCc1ccccc1C(=O)Nc1n[nH]c2c(C)c(F)c(C3C(C#N)=C(C)N(C)C(C)=C3C#N)cc12 [BAY-3827]
IC50 [3]: 124 nM

SMILES: O=C(NOC[C@H](O)CO)c1ccc(F)c(F)c1Nc1ccc(I)cc1F
% of control [4]: 98%
